Like-named read-outs stand apart in the source and are kept apart here. In the oligonucleotide strings, read from the 5' end, every base follows the letter of its sugar. An asterisk marks phosphorothioate; unmarked linkages are phosphodiester. Other units and linkages are bracketed, terminal groups are in braces. A string of capitals states the bases alone. r = 2'-OH (RNA); f = 2'-fluoro
Legend:
[1] = tested on: colon cancer cells (HT29); settings: 1 μM; for Tumoursphere formation after treatment: 3 days post-treatment
[2] = target: T1, CD133 expressed on Hep3B cells (Homo sapiens, UniProt O43490); assay: Aptamer dissociation constant by flow cytometry, Hep3B cells; settings: Hep3B cells (CD133-positive); binding at 37° C. for 30 min
T1 construct: determined using CD133 positive (HT-29 and Hep3B) and CD133 negative cell lines (T98G and HEK293T); host or cells: Hep3B
T1 sequence (O43490 20-865): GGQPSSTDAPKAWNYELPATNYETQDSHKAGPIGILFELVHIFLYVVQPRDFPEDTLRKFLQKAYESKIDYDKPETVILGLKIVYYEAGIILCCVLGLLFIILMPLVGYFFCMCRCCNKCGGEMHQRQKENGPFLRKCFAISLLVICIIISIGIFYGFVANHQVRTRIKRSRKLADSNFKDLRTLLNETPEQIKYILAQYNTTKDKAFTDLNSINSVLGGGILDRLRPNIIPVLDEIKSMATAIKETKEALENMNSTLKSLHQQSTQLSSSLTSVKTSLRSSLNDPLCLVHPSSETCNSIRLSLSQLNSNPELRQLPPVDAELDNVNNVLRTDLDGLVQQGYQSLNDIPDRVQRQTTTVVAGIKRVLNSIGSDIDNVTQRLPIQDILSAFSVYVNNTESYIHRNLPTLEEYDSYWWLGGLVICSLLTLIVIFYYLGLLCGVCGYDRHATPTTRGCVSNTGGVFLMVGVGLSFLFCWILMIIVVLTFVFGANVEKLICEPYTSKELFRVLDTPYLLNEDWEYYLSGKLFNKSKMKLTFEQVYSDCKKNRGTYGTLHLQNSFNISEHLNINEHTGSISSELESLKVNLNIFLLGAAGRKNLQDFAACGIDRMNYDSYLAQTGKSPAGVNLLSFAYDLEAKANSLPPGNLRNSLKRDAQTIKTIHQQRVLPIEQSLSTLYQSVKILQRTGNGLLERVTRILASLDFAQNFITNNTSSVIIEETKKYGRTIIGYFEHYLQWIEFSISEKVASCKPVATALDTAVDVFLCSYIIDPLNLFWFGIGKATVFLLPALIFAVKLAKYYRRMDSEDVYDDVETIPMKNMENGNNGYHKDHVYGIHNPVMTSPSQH
Protocol: (§1) Cells were harvested at 80% confluence with trypsin digestion and resuspended in washing buffer (DPBS with 2.5 mM MgCl2) and enumerated. Following centrifugation (1000×g for 5 min), the cell pellet was resuspended in binding buffer (DPBS supplemented with 5 mM MgCl2, 0.1 mg/ml tRNA, 0.1 mg/ml salmon sperm DNA) and diluted to 1×10^6/mL.
(§2) The dissociation constant (Kd) of successful 2′-fluoropyrimidine RNA aptamer species to native CD133 expressed on the cell surface was determined using flow cytometry. […] The mean fluorescence intensity (MFI) of the unselected library was subtracted from that of the aptamer-target cell to generate the MFI of specific binding. The Kd for each aptamer was determined by Scatchard analysis according to the equation: [Bound aptamer]/[aptamer]=−(1/Kd)×[bound aptamer]+([T]tot/Kd) where [T]tot represents the total target concentration. […]
(§3) To generate the truncated aptamers, the sense and antisense DNA oligonucleotides of desired sequences were synthesised. […] The binding affinities of these two aptamers and a negative control aptamer was determined using CD133 positive (HT-29 and Hep3B) and CD133 negative cell lines (T98G and HEK293T). […]

[3] = tested on: CD133-negative T98G cells; assay: Aptamer dissociation constant by flow cytometry, T98G cells (specificity); set-up: species or system human; settings: binding at 37° C. for 30 min
Protocol: as §1, §2, §3

[4] = target: T2, CD133 expressed on HT-29 cells (Homo sapiens, UniProt O43490); assay: Aptamer dissociation constant by flow cytometry, HT-29 cells; settings: HT-29 cells (CD133-positive); binding at 37° C. for 30 min
T2 construct: determined using CD133 positive (HT-29 and Hep3B) and CD133 negative cell lines (T98G and HEK293T); host or cells: HT-29
T2 sequence (O43490 20-865): T1 sequence (O43490 20-865)
Protocol: as §1, §2, §3

[5] = tested on: CD133-negative HEK293T cells; assay: Aptamer dissociation constant by flow cytometry, HEK293T cells (specificity); set-up: species or system human; settings: binding at 37° C. for 30 min
Protocol: as §1, §2, §3

Molecule | Tumoursphere formation after treatment ([1]; 10 cells/well) | Tumoursphere formation after treatment ([1]; 50 cells/well) | inhibition of tumoursphere formation (in words) ([1]; 100 cells/well) | Tumoursphere formation after treatment ([1]; 100 cells/well) | Kd [2] [µM] | Kd [3] [µM] | Kd [4] [µM] | Kd [5] [µM]
COc1cccc2c1C(=O)c1c(O)c3c(c(O)c1C2=O)C[C@@](O)(C(=O)CO)C[C@@H]3O[C@H]1C[C@H](N)[C@H](O)[C@H](C)O1 [Doxorubicin, doxorubicin] | 5/5 | 5/5 | no effect | 5/5 | – | – | – | –
CD133-1-2-2: 15 mer 2′-F-pyrimidine RNA aptamer, 5′-CC CUC CUA CAU AGG G-3′ (SEQ ID NO:1) (fCfCfCfUfCfCfUrAfCrAfUrArGrGrG; further chemistry not given here) | – | – | – | – | 0.032 | 275 | 0.082 | 120
CD133-2-1: 19 mer 2′-F-pyrimidine RNA aptamer, 5′-CAGAACGUAUACUAUUCUG-3′ (SEQ ID NO:6) (fCrArGrArAfCrGfUrAfUrAfCfUrAfUfUfCfUrG; further chemistry not given here) | – | – | – | – | 0.052 | 4.76 | 0.145 | 1740
